Patent US5358971A, “Substituted 2-aminotetralins” (Whitby Research, Inc., priority 1993, dated 1994)
Structures can show the parent of a compound that is named as a salt.

How the values were obtained:
dopamine D2 receptors = dopamine D2 receptors (Bos taurus, UniProt P20288); assay: Radioligand binding to dopamine D2 receptors ([3H]-Spiperone, bovine caudate nuclei); conditions: for Ki / D2 (pK1): bovine caudate nuclei, [3H]-Spiperone, 75 minutes at room temperature, 30 nM ketanserin, two-site fitted model; for Ki: read-out: D2 (pK1) (converted)
dopamine D2 receptors, sequence (P20288 whole entry): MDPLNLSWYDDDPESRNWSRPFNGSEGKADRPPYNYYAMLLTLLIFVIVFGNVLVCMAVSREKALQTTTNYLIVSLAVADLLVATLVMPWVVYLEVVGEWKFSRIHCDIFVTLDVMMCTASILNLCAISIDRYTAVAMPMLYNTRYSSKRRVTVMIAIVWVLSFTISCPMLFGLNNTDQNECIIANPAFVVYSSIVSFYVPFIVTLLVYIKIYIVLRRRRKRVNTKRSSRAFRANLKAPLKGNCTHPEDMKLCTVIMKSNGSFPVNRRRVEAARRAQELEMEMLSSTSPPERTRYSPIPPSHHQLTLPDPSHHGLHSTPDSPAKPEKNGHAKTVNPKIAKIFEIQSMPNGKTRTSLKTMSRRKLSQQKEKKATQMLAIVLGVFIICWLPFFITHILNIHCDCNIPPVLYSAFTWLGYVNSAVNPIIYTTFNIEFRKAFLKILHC
Experimental: (§1) Radioligand Binding Experiments (Dopamine Receptor Affinity Information; pK1 values):
(§2) Bovine brains were obtained fresh from a local slaughterhouse. The caudate nuclei were dissected out and homogenized in Buffer A (50 mM Tris; 1 mM Na2 -EDTA; 5 mM KCl; 1 mM MgCl2; 2 mM CaCl2; pH 7.4) using a Brinkmann Polytron. The homogenate was centrifuged at 40,000×g for 20 minutes and washed once. The pellet was resuspended in Buffer A, incubated at 37° C. for 15 minutes, then centrifuged. The pellet was washed once more, resuspended to a protein concentration of 5-10 mg/ml in Buffer A and frozen at -70° C. until used.
(§3) To test binding of the compounds to dopamine receptors, the following tritiated drugs were used as radioligands for each of the receptors tested: [^3 H]-Spiperone 21-24 Ci/mmol for D2 receptors and [^3 H]-SCH23390 75-85 Ci/mmol for D1 receptors. The radioligands were incubated with various concentrations of competing drug and bovine membranes for the following times: 75 minutes at room temperature for D2 receptors, and 15 minutes at 37° C. for D1 receptors. Specific binding was defined using 1 μM butaclamol (D2) and 1 μM SCH 23390 (D1). In addition, the D2 assays contained 30 nM ketanserin in order to block the binding of [^3 H]-spiperone to 5-HT2 receptors.
(§4) The assays were terminated by filtration using a 24-port Brandell cell harvester over filters that had been previously soaked in 0.1% polyethyleneimine, and the filters were washed three times by filtration of cold buffer. The filters were then placed in 5 ml scintillation vials to which 4 ml of Beckman Ready-Protein was then added, and each vial was counted for 2 minutes in a Beckman 3801 scintillation counter calibrated for conversion of cpm to dpm. Binding data were analyzed using the Ligand program of Munson and Rodbard (1980). The results are presented as pK1 values in a two-site fitted model.
as §2, with “To test binding to dopamine receptors, the bovine caudate nuclei assay was employed. Bovine” for “Bovine”, “mMMgCl2;” for “mM MgCl2;”, “Brinkman” for “Brinkmann”
(§5) The following tritiated drugs were used as radioligands for each of the receptors tested: [^3 H]-Spiperone 21-24 Ci/mmol for D2 receptors and [^3 H]-SCH23390 75-85 Ci/mmol for D1 receptors. The radioligands were incubated with various concentrations of competing drug and the appropriate membrane source for periods of time as follows: 75 minutes at room temperature for D2 receptors or 15 minutes at 37° C. for D1 receptors. Specific binding was defined using 1 μM butaclamol (D2) or 1 μM SCH23390 (D1). In addition, the D2 assays contained 30nM ketaserin in order to block the binding of ^3 H-spiperone to 5HT2 receptors.
as §4, with “as Ki” for “as pK1”, “values if the data were best fitted to a one-site model, or as Kh and K1 values if” for “values in”, “two-site model produced the better fit.” for “two-site fitted model.”

dopamine D1 receptors = dopamine D1 receptors (Bos taurus, UniProt Q95136); assay: Radioligand binding to dopamine D1 receptors ([3H]-SCH23390, bovine caudate nuclei); conditions: 15 minutes at 37° C., two-site fitted model; for Ki: read-out: D1 (pK1) (converted)
dopamine D1 receptors, sequence (Q95136 whole entry): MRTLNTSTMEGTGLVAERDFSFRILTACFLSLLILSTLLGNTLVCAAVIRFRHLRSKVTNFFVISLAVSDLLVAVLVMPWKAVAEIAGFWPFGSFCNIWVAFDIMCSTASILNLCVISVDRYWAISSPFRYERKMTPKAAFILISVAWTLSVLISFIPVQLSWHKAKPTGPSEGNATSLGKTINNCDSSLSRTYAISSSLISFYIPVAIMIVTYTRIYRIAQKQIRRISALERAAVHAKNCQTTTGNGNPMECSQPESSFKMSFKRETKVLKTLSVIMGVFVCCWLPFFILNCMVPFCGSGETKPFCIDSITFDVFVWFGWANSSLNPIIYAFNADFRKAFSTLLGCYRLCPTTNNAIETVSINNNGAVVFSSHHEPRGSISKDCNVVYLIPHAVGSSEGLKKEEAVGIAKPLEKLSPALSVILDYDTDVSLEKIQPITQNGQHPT
Experimental: as §1, §2, §3, §4
as §2, with “To test binding to dopamine receptors, the bovine caudate nuclei assay was employed. Bovine” for “Bovine”, “mMMgCl2;” for “mM MgCl2;”, “Brinkman” for “Brinkmann”
as §5
as §4, with “as Ki” for “as pK1”, “values if the data were best fitted to a one-site model, or as Kh and K1 values if” for “values in”, “two-site model produced the better fit.” for “two-site fitted model.”

dopamine D2 = conditions: reference compound, in words; cited from earlier work
dopamine receptor = conditions: prior art, in words; cited from earlier work

SMILES | Ki (dopamine D2 receptors) | Ki (dopamine D1 receptors) | also measured
CCCN(CCOc1ccccc1)C1CCc2ccc(O)cc2C1 (stereo not shown) [Example 39, 5,6,7,8-tetrahydro-6-[(2-phenoxylethyl)-propylamino]-3-naphthalenol] | 813 nM | 12300 nM | –
CCCN(CCC(c1ccccc1)c1ccccc1)C1CCc2c(O)cccc2C1 (stereo not shown) [Example 14, 2-[N-n-propyl,N-3,3-diphenyipropylamino]-5-hydroxytetralin] | 339 nM | 1380 nM | –
CCCN(CCc1cccs1)C1CCc2c(O)cccc2C1 (racemic) [Example N-0437, reference compound] | – | – | D2 (pK1) (dopamine D2 receptors): 6.96; dopamine D2 agonist (dopamine D2): potent dopamine D2 agonist
CCCN(CCOc1cccc(F)c1)C1CCc2c(O)cccc2C1 (stereo not shown) [Example 45, 5,6,7,8-tetrahydro-6-[[2(3-fluorophenoxy)ethyl]propylamino]-1-naphthalenol] | 316 nM | 10500 nM | –
CCCN(CCOc1ccc2ccccc2c1)C1CCc2c(O)cccc2C1 (stereo not shown) [Example 32, 5,6,7,8-tetrahydro-6-[(2-(2-naphthalenyloxy)ethyl]propylamino]-1-naphthalenol] | 2630 nM | 4170 nM | –
CCCN(CCC1OCc2ccccc21)C1CCc2c(O)cccc2C1 (stereo not shown) [Example 46, 6-[[2-(1,3-dihydro-1-isobenzofuranyl)-ethyl]propylamino]-5,6,7,8-tetrahydro-1-naphthalenol] | – | – | D2 (pK1) (dopamine D2 receptors): 6.77; D1 (pK1) (dopamine D1 receptors): 5.14
CCCN(CC[C@H]1OC(=O)c2ccccc21)[C@H]1CCc2c(O)cccc2C1 [Example 36, (S,R)-3-[2-[propyl(1,2,3,4-tetrahydro-5-hydroxy-2-naphthalenyl)amino]ethyl]-l(3H)-isobenzofuranone] | – | – | D2 (pK1) (dopamine D2 receptors): 6.85; D1 (pK1) (dopamine D1 receptors): 6.56
CCCN(CC(c1ccccc1)c1ccccc1)C1CCc2c(O)cccc2C1 (stereo not shown) [Example 12, 2-[N-n-propyl,N-2,2-diphenylethylamino]-5-hydroxytetralin] | 46.8 nM | 9120 nM | –
CN1CCc2cccc3c2[C@H]1Cc1ccc(O)c(O)c1-3 [apomorphine] | – | – | dopaminergic activity (dopamine receptor): high activity

More lines, main results first:

Ki (dopamine D2 receptors) | Ki (dopamine D1 receptors) | SMILES | also measured
123 nM | 1230 nM | CCCN(CC[C@@H]1OC(=O)c2ccccc21)[C@H]1CCc2c(O)cccc2C1 [Example 37, (S,S)-3-[2-[propyl(1,2,3,4-tetrahydro-5-hydroxy-2-naphthalenyl)amino]ethyl]-1(3H)-isobenzofuranone] | –
1150 nM | 13500 nM | CCCN(CCOc1cccc2ccccc12)C1CCc2c(O)cccc2C1 (stereo not shown) [Example 48, 5,6,7,8-tetrahydro-6-[[2-(1-naphthalenyloxy)ethyl]propylamino]-1-naphthalenol hydrochloride] | –
66.1 nM | 2140 nM | CCCN(CCC1OC(=O)c2ccccc21)C1CCc2c(O)cccc2C1 (stereo not shown) [Example 9, 3-[2-[propyl(1,2,3,4-tetrahydro-5-hydroxy-2-naphthalenyl)amino]ethyl]-l(3H)-isobenzofuranone] | –
126 nM | 12000 nM | CCCN(CCOc1ccccc1)C1CCc2c(O)cccc2C1 (stereo not shown) [Example 2, 2-[N-n-propyl,N-2-(phenyloxy)ethylamino]-5-hydroxytetralin] | affinity for binding to dopamine D2 receptors (dopamine D2 receptors; in words): high affinity; selectivity for binding to dopamine D2 receptors (dopamine D2 receptors; in words): high affinity and selectivity
170 nM | 8710 nM | CCCN(CCOc1ccccc1)C1CCc2c(O)cccc2C1 (single isomer, unassigned; (-)) [Example 30, (-)-5,6,7,8-tetrahydro-6-[(2-phenoxyethyl)propylamino]-1-naphthalenol] | –
79.4 nM | 1290 nM | CCCN(CCSc1ccccc1)C1CCc2c(O)cccc2C1 (stereo not shown) [Example 34, 5,6,7,8-tetrahydro-6-[(2-thiophenoxyethyl)propylamino]-1-naphthalenol] | –
